Experimental data reported in the CombiSolv-Exp solvation set (Vermeire and Green 2021).

Assay: solvent given as SMILES

ClCBr
Conditions | solvation free energy, 298 K [kcal/mol]
in C1CCCCC1 | -3.69
in ClC(Cl)(Cl)Cl | -3.93
in c1ccccc1 | -4.32

CC1=CCC(C(C)C)c2cc(C)ccc21 (centres undefined)
Conditions | solvation free energy, 298 K [kcal/mol]
in O | -1.12

O=C(C(=O)c1ccccc1)c1ccccc1
Conditions | solvation free energy, 298 K [kcal/mol]
in C1CCOC1 | -12.6
in C1COCCO1 | -12.5
in CC(=O)N(C)C | -12.6
in CC(C)(C)O | -10.8
in CC(C)=O | -12.5
in CC(C)CC(C)(C)C | -10.2
in CC(C)CC(C)O | -10.8
in CC(C)CCO | -10.8
in CC(C)CO | -10.8
in CC(C)O | -10.8
in CC(C)OC(C)C | -11.2
in CC(C)OCCO | -11.8
in CCC(C)(C)O | -11.1
in CCC(C)=O | -12.5
in CCC(C)O | -10.9
in CCCC(C)O | -10.9
in CCCCC(CC)CO | -10.8
in CCCCCC | -10.3
in CCCCCCC | -10.3
in CCCCCCCC | -10.3
in CCCCCCCCC=CCCCCCCCC(=O)OCC(COC(=O)CCCCCCCC=CCCCCCCCC)OC(=O)CCCCCCCC=CCCCCCCCC | -11.2
in CCCCCCCCCC | -10.3
in CCCCCCCCCCO | -10.9
in CCCCCCCCO | -10.8
in CCCCCCCO | -10.9
in CCCCCCO | -10.9
in CCCCCO | -11
in CCCCCl | -12.1
in CCCCO | -11
in CCCCOC(C)=O | -12.2
in CCCCOCCO | -11.8
in CCCO | -11.1
in CCCOCCO | -11.8
in CCO | -11.1
in CCOC(C)=O | -12.3
in CCOCC | -11.8
in CCOCCO | -11.9
in CO | -11.2
in COC(C)(C)C | -11.8
in COC(C)=O | -12.4
in COC(C)CCO | -11.8
in ClC(Cl)(Cl)Cl | -12
in ClCCCl | -12.7
in Clc1ccccc1 | -12.4
in Fc1ccccc1 | -12.4
in O | -6.64
in O=C1CCCCC1 | -12.6

Clc1ccc(C(c2ccc(Cl)cc2)C(Cl)Cl)cc1
Conditions | solvation free energy, 298 K [kcal/mol]
in CCCCCCCCO | -13.7
in O | -4.88

Brc1ccccc1
Conditions | solvation free energy, 298 K [kcal/mol]
in C1CCOC1 | -6.45
in C1COCCO1 | -6.45
in CCCCCC | -5.66
in CCCCCCC | -5.72
in CCCCCCCCCC | -5.43
in CCCCCCCCCCCCCCCC | -5.47
in CN(C)C=O | -6.21
in COCCO | -5.73
in ClC(Cl)(Cl)Cl | -6.23
in NC=O | -4.11
in O | -1.46
in OCCO | -4.42

CC(=O)Cc1ccccc1
Conditions | solvation free energy, 298 K [kcal/mol]
in O | -5.62

O=C1c2ccccc2C(=O)c2c(Cl)cccc21
Conditions | solvation free energy, 298 K [kcal/mol]
in C1CCOC1 | -15
in CC(=O)N(C)C | -14.9
in CC(C)(C)O | -12.6
in CC(C)CC(C)(C)C | -12
in CC(C)CC(C)O | -12.7
in CC(C)CCO | -12.7
in CC(C)CO | -12.6
in CC(C)O | -12.6
in CCC(C)O | -12.7
in CCCC(C)CO | -12.8
in CCCC(C)O | -12.8
in CCCCCC | -12.2
in CCCCCCC | -12.3
in CCCCCCCC | -12.3
in CCCCCCCCCC | -12.4
in CCCCCCCCCCO | -13.1
in CCCCCCCCO | -13.1
in CCCCCCCO | -13.1
in CCCCCCO | -13.1
in CCCCCO | -12.9
in CCCCCOC(C)=O | -13.9
in CCCCO | -12.8
in CCCCOC(C)=O | -14
in CCCCOCCCC | -13.1
in CCCO | -12.8
in CCCOC(C)=O | -14.1
in CCOC(C)=O | -14.2
in CCOCC | -13.4
in CO | -12.7
in COC(C)(C)C | -13.4
in COC(C)=O | -14.3
in Fc1ccccc1 | -14.6
in O | -8.23

Cc1ccccc1C(=O)N(O)c1ccccc1C
Conditions | solvation free energy, 298 K [kcal/mol]
in O | -11.2

COC
Conditions | solvation free energy, 298 K [kcal/mol]
in Brc1ccccc1 | -2.1
in CC(C)(C)O | -2.25
in CC(C)CCO | -1.99
in CC(C)CO | -2.1
in CC(C)O | -2.13
in CCC(C)(C)O | -2.22
in CCC(C)CO | -2.05
in CCC(C)O | -2.1
in CCC(O)CC | -2.18
in CCCC(C)O | -2.05
in CCCCCC | -1.79
in CCCCCCCCO | -1.87
in CCCCCO | -1.98
in CCCCO | -2.05
in CCCO | -2.1
in CN(C)C=O | -2.13
in CO | -2.31
in COC(C)=O | -2.33
in Cc1ccc(C)cc1 | -2.03
in Cc1cccc(C)c1 | -2.05
in Cc1ccccc1C | -2.04
in Clc1ccccc1 | -2.18
in Ic1ccccc1 | -2.03
in O | -1.91

COC=O
Conditions | solvation free energy, 298 K [kcal/mol]
in C=CCCCCCCCCCCCCCC | -1.95
in CC(=O)N(C)C | -3.41
in CCCCCCCCCCCCCCCC | -1.94
in CCCCN(C=O)CCCC | -2.97
in CCOCCO | -3.08
in CN1CCCC1=O | -3.71
in CNC(C)=O | -3.15
in CS(C)=O | -3.28
in NC=O | -3.07
in O | -2.78
in [2H]O[2H] | -2.82

Clc1cc(Cl)c(-c2cc(Cl)c(Cl)cc2Cl)cc1Cl
Conditions | solvation free energy, 298 K [kcal/mol]
in CCCCCCCCO | -12.9
in O | -3.1

CC(=O)Nc1ccccc1
Conditions | solvation free energy, 298 K [kcal/mol]
in C1COCCO1 | -11.8
in O | -9.79
